Measured values as given in ChEMBL document CHEMBL1156504, “Structural characterization of the human androgen receptor ligand-binding domain complexed with EM5744, a rationally designed steroidal ligand bearing a bulky chain directed toward helix 12” (J Biol Chem, 2007).
The source made the active and inactive calls. The rule behind the calls is not given here.

Experiments:
Mus musculus [1] = species: Mus musculus; experiment: Induction of proliferation of mouse Shionogi cells at 10 pM; type: functional
Mus musculus [2] = species: Mus musculus; experiment: Inhibition of 5-alpha-dihydrotestosterone-stimulated growth of mouse Shionogi cells at 1 uM; type: functional

Compound	Activity (Mus musculus [1])	Activity (Mus musculus [2])
C[C@]12CCC(=O)C[C@@H]1CC[C@@H]1[C@@H]2CC[C@]2(CCOCc3cc(F)cc(F)c3)[C@@H](O)CC[C@@H]12	Active	inactive
C[C@]12CCC(=O)C[C@@H]1CC[C@@H]1[C@@H]2CC[C@]2(C)[C@@H](O)CC[C@@H]12	Active	–
